In US11077116B2, “Isoxazole derivatives as inducers of fetal hemoglobin in erythroid precursor cells from beta-thalassemic patients” (RARE PARTNERS SRL, priority 2017, dated 2021):

Test system: ErPCs (erythroid precursor cells) of β-thalassemic patients
Assay: HPLC analysis of hemoglobins in cell lysates of treated ErPCs (two-phase liquid culture)
Type: cell-based, human
Settings: for HbF induction: patient Th1 ErPCs (Table II); for HbF induction compared with HU: patient Th10 ErPCs (Table III); for HbF level in treated cells (table title): 100 nM as printed in title
Description: Patients were recruited following all the ethical requirements and the approval of the Ethical Committees of Ferrara Hospital. Blood samples were collected from 23 β-thalassemia patients after signature of the informed consent form.
The effects of isoxazole derivatives on cell growth and differentiation of erythroid precursors cells were determined by employing the two-phase liquid culture system and treated for five days with different concentration of the selected compound.
HPLC analyses were done on cell lysates derived from ErPCs of 23 patients and, through careful comparative analyses, we have monitored and quantified HbF, adult hemoglobins (HbA0 and HbA2) and the presence of α-aggregates. Generally, excess of α-globin chains is present in thalassemic patients that are deficient in β-globins, causing α-aggregates formation and precipitation. The α-aggregates reduction represents an important clinical result usually detectable in the presence of efficient HbF inducers.

In the case of `CCNC(=O)c1noc(-c2cc(C(C)C)c(O)cc2O)c1NC(=O)c1ccc(OC)cc1` [Compound 1], the “HbF induction” value is reported as “active in inducing HbF”, the “aggregates α %” value (patient Th1 ErPCs, 85 nM, untreated C− 6.70) is reported as 5.90% and the HbF % (patient Th1 ErPCs, 85 nM, untreated C− 15.47) is reported as 30.30%. The HbA2 % (patient Th1 ErPCs, 85 nM, untreated C− 31.29) was 21.39%, the HbA0 % (patient Th1 ErPCs, 85 nM, untreated C− 46.54) was 42.41% and the “HbF induction compared with HU” value was “more active than HU in inducing HbF”. The “aggregates α %” value (patient Th10 ErPCs, 85 nM, untreated C− 11.15) was 2.26%, the HbF % (patient Th10 ErPCs, 85 nM, untreated C− 17.57) was 35.54% and the HbA2 % (patient Th10 ErPCs, 85 nM, untreated C− 32.02) was 25.81%. For the same compound, the HbA0 % (patient Th10 ErPCs, 85 nM, untreated C− 39.26) was 36.39%.
`CCNC(=O)c1noc(-c2cc(C(C)C)c(O)cc2O)c1NC(=O)CCN1CCOCC1` [Compound 2] was tested, and the “HbF induction” value was “active in inducing HbF”, the “aggregates α %” value (patient Th1 ErPCs, 50 nM, untreated C− 6.70) was 2.81% and the HbF % (patient Th1 ErPCs, 50 nM, untreated C− 15.47) was 21.67%. The HbA2 % (patient Th1 ErPCs, 50 nM, untreated C− 31.29) was 24.82%, the HbA0 % (patient Th1 ErPCs, 50 nM, untreated C− 46.54) was 50.70% and the “HbF induction compared with HU” value was “more active than HU in inducing HbF”. For the same compound, the “aggregates α %” value (patient Th10 ErPCs, 50 nM, untreated C− 11.15) was 2.02%, the HbF % (patient Th10 ErPCs, 50 nM, untreated C− 17.57) was 36.36% and the HbA2 % (patient Th10 ErPCs, 50 nM, untreated C− 32.02) was 25.29%. For the same compound, the HbA0 % (patient Th10 ErPCs, 50 nM, untreated C− 39.26) was 36.34%.
`NC(=O)NO` [HU, hydroxyurea, reference compound] was tested, and the “HbF induction” value was “active in inducing HbF”, the “HbF level in treated cells (table title)” value (patient Th1 ErPCs, untreated 15.47%) was 24.51% and the “aggregates α %” value (patient Th1 ErPCs, 100 μM, untreated C− 6.70) was 2.80%. For the same compound, the HbF % (patient Th1 ErPCs, 100 μM, untreated C− 15.47) was 24.51%, the HbA2 % (patient Th1 ErPCs, 100 μM, untreated C− 31.29) was 33.19% and the HbA0 % (patient Th1 ErPCs, 100 μM, untreated C− 46.54) was 37.61%. The “HbF level in treated cells (table title)” value (patient Th10 ErPCs, untreated 17.57%) was 19.42%, the “aggregates α %” value (patient Th10 ErPCs, 100 μm, untreated C− 11.15) was 11.55% and the HbF % (patient Th10 ErPCs, 100 μm, untreated C− 17.57) was 19.42%. For the same compound, the HbA2 % (patient Th10 ErPCs, 100 μm, untreated C− 32.02) was 34.82% and the HbA0 % (patient Th10 ErPCs, 100 μm, untreated C− 39.26) was 34.22%.
